{"source": "patent US20080171745A1", "about": "“METHODS RELATING TO THE TREATMENT OF FIBROSIS” (UNIVERSITY OF WASHINGTON, priority 2005, published 2008)", "key": {"S100A4": {"test_system": "S100A4", "experiment": "RT-PCR in bleomycin treated mice", "type": "in vivo", "settings": "5 mgs/Kg/day s.c."}, "C57/B16 mice": {"test_system": "C57/B16 mice", "experiment": "Bleomycin induced murine pulmonary fibrosis, lung sections stained with trichrome, body weight and survival", "type": "in vivo", "settings": "for disease progression, as judged by reduced mortality, histopathology and endogenous gene expression: bleomycin murine model, 5 mg/Kg/day", "protocol": "Murine models of bleomycin induced fibrosis have been developed in order to study fibrotic disease progression.\nThere is an absence of airway epithelium in lower left compared to upper left (see arrow heads) and extensive collagen deposition (lower left). On the sixth day, either saline (upper right) or ICG-001 (5 mgs/Kg/day) was administered for 10 days after which the mice were sacrificed and sectioned. Of interest is the upper right (saline treatment) showing lack of normal airway epithelialization, extensive collagen deposition and intra-airway hypercellularity (fibroblasts and inflammatory influx)."}, "collagen 1A2": {"test_system": "collagen 1A2", "experiment": "RT-PCR in bleomycin treated mice", "type": "in vivo", "settings": "5 mgs/Kg/day s.c."}, "IPF patient fibroblasts": {"test_system": "IPF patient fibroblasts", "experiment": "IPF patient fibroblasts, Western blots on whole cell lysates", "type": "cell-based, human", "protocol": "Western blots for S100A4 (also know as FSP-1 or fibroblast specific protein-1) and E-Cadherin were performed on whole cell lysates."}, "[1]": {"settings": "bleomycin 5 days, then 5 mgs/Kg/day for 10 days"}, "[2]": {"settings": "RPMI 1640+10% FBS, 2 days, whole cell lysates"}}, "data": [{"smiles": "O=C1[C@H](Cc2ccc(O)cc2)N2C(=O)CCN(C(=O)NCc3ccccc3)[C@H]2CN1Cc1cccc2ccccc12", "note": "[ICG-001]", "values": [{"measurement": "S100A4 message (RT-PCR)", "setting": "S100A4", "value": "reduced essentially to negative control"}, {"measurement": "airway histology (epithelialization)", "setting": "C57/B16 mice; [1]", "value": "airway looks essentially normal"}, {"measurement": "body weight", "setting": "C57/B16 mice; [1]", "value": "regained normal body weight"}, {"measurement": "collagen levels (trichrome stain)", "setting": "C57/B16 mice; [1]", "value": "normal collagen levels"}, {"measurement": "survival", "setting": "C57/B16 mice; bleomycin 5 days, then 5 mgs/Kg/day for 10 days, untreated controls did not survive", "value": "survived"}, {"measurement": "disease progression, as judged by reduced mortality, histopathology and endogenous gene expression", "setting": "C57/B16 mice", "value": "not only halted but reversed disease progression"}, {"measurement": "disease progression, as judged by reduced mortality, histopathology and endogenous gene expression", "setting": "C57/B16 mice; listed as ICG-011, 5 mg/kg/day", "value": "not only halts but reverses disease progression"}, {"measurement": "collagen 1A2 message (RT-PCR)", "setting": "collagen 1A2", "value": "reduced essentially to negative control"}, {"measurement": "S100A4 and E-cadherin expression at the mRNA level", "setting": "IPF patient fibroblasts; IPF patient fibroblasts", "value": "this is also true at the mRNA level"}, {"measurement": "E-Cadherin expression, Western blot", "setting": "IPF patient fibroblasts; [2]", "value": "increased E-Cadherin expression"}, {"measurement": "S100A4 (FSP-1) expression, Western blot", "setting": "IPF patient fibroblasts; [2]", "value": "decreased S100A4 expression"}]}]}
